In US20210300912A1 (Ikena Oncology, Inc., priority 2019, published 2021):
Read-outs that look alike come from different tables or passages of the source.

Assays:
[1] = molecular target: T1, AHR (Homo sapiens, UniProt P35869); experiment: DRE-Luciferase Reporter Assay, HepG2, agonist; format: cell-based; conditions: HepG2 cells, agonist mode
T1 construct: endogenous in cells; host or cells: HepG2 (human), DRE-luciferase reporter stably or transiently transfected
T1 sequence (P35869 11-848): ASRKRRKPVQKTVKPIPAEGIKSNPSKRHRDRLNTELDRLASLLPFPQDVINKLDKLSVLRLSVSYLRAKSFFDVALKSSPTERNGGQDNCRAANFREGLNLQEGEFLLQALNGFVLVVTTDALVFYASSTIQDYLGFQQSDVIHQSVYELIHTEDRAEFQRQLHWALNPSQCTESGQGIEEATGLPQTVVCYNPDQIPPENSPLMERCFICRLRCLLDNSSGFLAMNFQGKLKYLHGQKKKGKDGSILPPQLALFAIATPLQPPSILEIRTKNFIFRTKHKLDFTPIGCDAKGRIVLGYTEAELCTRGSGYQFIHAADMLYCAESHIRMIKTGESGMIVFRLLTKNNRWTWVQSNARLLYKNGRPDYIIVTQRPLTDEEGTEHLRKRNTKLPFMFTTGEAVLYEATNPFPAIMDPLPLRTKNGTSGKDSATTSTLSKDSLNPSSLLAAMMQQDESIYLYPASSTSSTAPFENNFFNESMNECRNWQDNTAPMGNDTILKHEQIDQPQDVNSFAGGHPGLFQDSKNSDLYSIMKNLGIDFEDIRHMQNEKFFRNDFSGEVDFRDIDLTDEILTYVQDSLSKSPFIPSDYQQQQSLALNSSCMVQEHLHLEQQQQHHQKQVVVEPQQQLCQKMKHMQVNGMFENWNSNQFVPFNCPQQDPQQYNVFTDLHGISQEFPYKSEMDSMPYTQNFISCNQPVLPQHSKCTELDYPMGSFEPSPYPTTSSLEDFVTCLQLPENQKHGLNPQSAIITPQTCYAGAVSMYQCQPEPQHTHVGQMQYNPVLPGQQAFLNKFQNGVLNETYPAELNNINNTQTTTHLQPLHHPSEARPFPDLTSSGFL
Protocol: (§1) AHR binds to Dioxin Responsive Elements (DRE) upstream of genes that it activates. One measure of AHR activity is activation of a reporter gene, such as luciferase, downstream of one or multiple DRE elements. Luciferase activity will reflect activation and inhibition of AHR in the cells expressing this reporter.
(§2) Murine Hepa1-6 or Hepa-1c1c7 or other murine cell line with a DRE-luciferase reporter either stably or transiently transfected are plated in media in plates (96-well, 384-well or other plates) and incubated overnight at 37 C in a CO2 incubator. Likewise, human HepG2 or other human cell line with a DRE-luciferase reporter either stably or transiently transfected are plated in media in plates (96-well, 384-well or other plates) and incubated overnight at 37 C in a CO2 incubator.
(§3) The next day, an AHR agonist compound is added. Cells are incubated for 6, 16 or 24 hours or another time point and then lysed for determination of luciferase activity as a read-out of the AHR activation. Luciferase can be measured with a commercial kit such as the Promega Luciferase kit or any kit or reagents that provide the luciferin substrate for measuring luciferase activity. The level of luciferase with only activating ligand (e.g. such as TCDD, kynurenine, ITE (2-(1H-indole-3-ylcarbonyl)-4-thiazolecarboxylic methyl ester), VAF347, BNF (beta-naphthoflavone), ICZ (6-formylindolo(3,2-b) carbazole or other AHR ligands) added is the maximum signal while the luciferase with no ligand is the minimum signal. EC50s can be determined as the concentration which activates half of the maximum luciferase activity.

[2] = molecular target: T2, AHR (Mus musculus, UniProt P30561); experiment: P450 CYP1A1 Luciferase Assay, Hepa1.6, agonist; format: cell-based, murine; conditions: Hepa1.6 cells, CYP1A1 enzyme activity read-out, agonist mode; Table 2
T2 construct: endogenous in cells; host or cells: Hepa1-6 / Hepa1.6 (murine hepatoma); DRE-luciferase reporter transfected in A3, no transfection in A2
Protocol: AHR binds to Dioxin Responsive Elements (DRE) upstream of genes that it activates. One measure of AHR activity is P450 CYP1A1 protein levels determined by measuring CYP1A1 enzyme activity using a luminogenic CYP1A1 luciferin-based substrate. Luciferase activity will reflect CYP1A1 activity resulting from activation of AHR in the cells.
Murine Hepa1-6 or Hepa-1c1c7 or other murine cell line, human HepG2 or other human cell line are plated in media (96-well, 384-well or other plates) and incubated overnight at 37 C in a CO2 incubator.
as §3, with “lysed and incubated with a CYP1A1 luciferase-based substrate (e.g., Luciferin-CEE)” for “lysed”, “3, 6, or 12 hours of another time point. Determination” for “determination”, “CYP1A1 enzyme activity” for “the AHR activation. Luciferase”, “P450 Glo CYP1A1 detection reagent” for “Luciferase kit”, “provide” for “provide the luciferin substrate”, “(e.g.,” for “(e.g.”

[3] = molecular target: T2, AHR; experiment: DRE-Luciferase Reporter Assay, Hepa1.6, agonist; format: cell-based, murine; conditions: Hepa1.6 cells, agonist mode
Protocol: as §1, §2, §3

[4] = Table 2, read-out: DRE-Luc HepG2 - Agonist: Average EC50
[5] = Table 3, read-out: DRE-Luc HepG2 - Agonist: Average EC50
[6] = DRE-Luc Hepa1.6 - Agonist: Average EC50 (μM), Table 3
[7] = Table 3, read-out: DRE-Luc Hepa1.6 - Agonist: Average EC50

T2 sequence (P30561 10-805 limits assumed): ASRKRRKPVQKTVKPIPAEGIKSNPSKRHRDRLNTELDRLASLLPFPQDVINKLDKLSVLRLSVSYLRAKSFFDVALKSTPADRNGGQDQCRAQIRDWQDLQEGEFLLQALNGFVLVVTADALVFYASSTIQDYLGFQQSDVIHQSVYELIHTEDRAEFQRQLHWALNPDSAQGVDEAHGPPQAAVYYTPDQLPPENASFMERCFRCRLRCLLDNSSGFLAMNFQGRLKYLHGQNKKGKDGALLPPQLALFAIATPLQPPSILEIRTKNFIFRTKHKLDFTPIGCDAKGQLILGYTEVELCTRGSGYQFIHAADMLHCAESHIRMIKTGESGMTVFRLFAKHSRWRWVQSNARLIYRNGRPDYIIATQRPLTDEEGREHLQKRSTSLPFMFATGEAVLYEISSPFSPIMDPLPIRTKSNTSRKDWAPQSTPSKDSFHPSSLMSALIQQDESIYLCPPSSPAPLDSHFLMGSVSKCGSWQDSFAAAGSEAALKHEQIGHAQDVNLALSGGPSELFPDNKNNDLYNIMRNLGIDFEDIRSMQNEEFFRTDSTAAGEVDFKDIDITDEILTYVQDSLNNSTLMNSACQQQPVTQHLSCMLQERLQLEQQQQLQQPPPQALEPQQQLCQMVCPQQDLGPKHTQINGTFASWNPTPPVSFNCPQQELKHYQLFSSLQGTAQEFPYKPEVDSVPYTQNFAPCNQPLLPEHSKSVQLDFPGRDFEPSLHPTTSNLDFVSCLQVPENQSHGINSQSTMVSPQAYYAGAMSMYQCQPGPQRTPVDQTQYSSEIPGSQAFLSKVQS
T2 sequence (P11499 whole entry partner): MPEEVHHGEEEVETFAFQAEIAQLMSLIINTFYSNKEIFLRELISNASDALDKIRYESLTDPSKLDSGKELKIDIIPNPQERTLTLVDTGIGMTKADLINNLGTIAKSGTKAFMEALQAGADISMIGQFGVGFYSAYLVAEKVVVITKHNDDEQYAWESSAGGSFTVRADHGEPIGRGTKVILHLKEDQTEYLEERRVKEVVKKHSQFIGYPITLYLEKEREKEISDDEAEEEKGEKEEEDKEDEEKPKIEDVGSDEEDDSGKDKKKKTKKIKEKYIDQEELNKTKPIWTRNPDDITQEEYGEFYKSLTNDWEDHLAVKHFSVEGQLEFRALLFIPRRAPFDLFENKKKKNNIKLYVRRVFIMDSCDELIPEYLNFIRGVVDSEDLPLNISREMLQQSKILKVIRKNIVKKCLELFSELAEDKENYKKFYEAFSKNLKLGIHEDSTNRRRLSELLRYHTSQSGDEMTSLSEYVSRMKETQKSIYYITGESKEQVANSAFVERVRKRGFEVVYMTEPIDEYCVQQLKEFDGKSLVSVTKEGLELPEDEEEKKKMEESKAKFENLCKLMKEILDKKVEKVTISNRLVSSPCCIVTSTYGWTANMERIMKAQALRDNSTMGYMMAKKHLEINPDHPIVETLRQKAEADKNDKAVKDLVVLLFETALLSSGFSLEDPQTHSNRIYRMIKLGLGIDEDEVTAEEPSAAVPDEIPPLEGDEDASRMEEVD
T2 sequence (O08915 whole entry partner): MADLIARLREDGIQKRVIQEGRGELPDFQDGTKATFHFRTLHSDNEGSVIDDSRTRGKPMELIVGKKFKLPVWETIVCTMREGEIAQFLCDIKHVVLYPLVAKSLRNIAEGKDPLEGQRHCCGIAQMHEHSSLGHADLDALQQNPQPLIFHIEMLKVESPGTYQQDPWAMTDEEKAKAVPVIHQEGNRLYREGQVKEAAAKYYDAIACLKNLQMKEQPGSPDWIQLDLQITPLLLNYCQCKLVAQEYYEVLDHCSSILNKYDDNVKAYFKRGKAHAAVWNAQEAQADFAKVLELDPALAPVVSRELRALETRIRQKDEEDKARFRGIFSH

| SMILES | EC50 [1, 4] | EC50 [2] | EC50 [1, 5] | EC50 [3, 6] | EC50 [3, 7] |
| --- | --- | --- | --- | --- | --- |
| CC(C)c1csc(C(=O)c2c[nH]c3ccc(S(=O)(=O)O)cc23)n1 [Compound I-19] | > 1 µM | > 1 µM |  |  |  |
| O=C(O)CCCN1CCC(c2csc(C(=O)c3c[nH]c4ccccc34)n2)CC1 [Compound I-5] | 0.1 to 1 µM | > 1 µM |  |  |  |
| O=C(c1nc([C@H]2CC[C@@H](O)CC2)cs1)c1c[nH]c2ccccc12 [Compound I-47] | > 1 µM | > 1 µM |  |  |  |
| COc1ccc2c(C(=O)c3nc(C(C)C)cs3)c[nH]c2c1 [Compound I-2] | < 0.01 µM | > 1 µM |  |  |  |
| C[N+](C)(C)CCCN1CCC(c2csc(C(=O)c3c[nH]c4ccccc34)n2)CC1 [Compound I-20] | > 1 µM | > 1 µM |  |  |  |
| N#Cc1nc(C(=O)c2c[nH]c3ccccc23)sc1N [Compound I-50] |  |  | < 0.01 µM | < 0.01 µM |  |
| Cc1sc(C(=O)c2c[nH]c3ccccc23)nc1C(=O)OC1CC[N+](C)(C)CC1 [Compound I-10] | 0.1 to 1 µM | > 1 µM |  |  |  |
| Nc1sc(C(=O)c2c[nH]c3ccccc23)nc1C(F)(F)F [Compound I-51] |  |  | < 0.01 µM | < 0.01 µM |  |
| CN1CCC(c2csc(C(=O)c3c[nH]c4ccccc34)n2)CC1 [Compound I-7] | 0.1 to 1 µM | > 1 µM |  |  |  |
| COC(=O)c1nc(C(=O)c2c[nH]c3ccccc23)sc1Br [Compound I-53] |  |  | < 0.01 µM | 0.01 to 0.1 µM |  |
| O=C(c1nc([C@H]2CC[C@H](O)CC2)cs1)c1c[nH]c2ccccc12 [Compound I-52] |  |  | 0.01 to 0.1 µM |  | > 1 µM |
| O=C(O)CCC(=O)N1CCC(c2csc(C(=O)c3c[nH]c4ccccc34)n2)CC1 [Compound I-18] | > 1 µM | > 1 µM |  |  |  |
| C[N+](C)(C)CCC(=O)N1CCC(c2csc(C(=O)c3c[nH]c4ccccc34)n2)CC1 [Compound I-23] | > 1 µM | > 1 µM |  |  |  |
| COC(=O)c1nc(C(=O)c2c[nH]c3ccccc23)sc1N [Compound I-56] |  |  | < 0.01 µM | < 0.01 µM |  |
| C[N+]1(C)CCC(c2csc(C(=O)c3c[nH]c4ccccc34)n2)CC1 [Compound I-8] | 0.1 to 1 µM | > 1 µM |  |  |  |
| COC(=O)c1nc(C(=O)c2c[nH]c3ccccc23)sc1C(F)(F)F [Compound I-54] |  |  | < 0.01 µM |  | > 1 µM |
| COC(=O)c1ccc2c(C(=O)c3nc(C(C)C)cs3)c[nH]c2c1 [Compound I-58] |  |  | 0.01 to 0.1 µM | 0.01 to 0.1 µM |  |
| Cc1sc(C(=O)c2c[nH]c3ccccc23)nc1C(=O)OC(C)C [Compound I-11] | 0.1 to 1 µM | > 1 µM |  |  |  |
| O=C(c1nc([C@H]2CC[C@@H](C(=O)O)CC2)cs1)c1c[nH]c2ccccc12 [Compound I-9] | 0.1 to 1 µM | > 1 µM |  |  |  |
| O=C(c1nc([C@H]2CC[C@H](C(=O)O)CC2)cs1)c1c[nH]c2ccccc12 [Compound I-4] | 0.1 to 1 µM | > 1 µM |  |  |  |

Now from value to compound:

| EC50 [1, 4] | EC50 [2] | EC50 [1, 5] | EC50 [3, 6] | EC50 [3, 7] | SMILES |
| --- | --- | --- | --- | --- | --- |
|  |  | < 0.01 µM | < 0.01 µM |  | CNc1sc(C(=O)c2c[nH]c3ccccc23)nc1C(=O)OC [Compound I-84, Methyl 2-(1H-indole-3-carbonyl)-5-(methylamino)thiazole-4-carboxylate] |
| 0.01 to 0.1 µM | > 1 µM |  |  |  | COC(=O)c1csc(C(=O)c2c[nH]c3ccccc23)n1 [Compound P-4] |
|  | > 1 µM |  |  |  | CNC(=O)c1csc(C(=O)c2c[nH]c3ccccc23)n1 [Compound P-3] |
|  |  | 0.01 to 0.1 µM | 0.01 to 0.1 µM |  | COC(=O)c1csc(C(=O)c2c[nH]c3cc([N+](=O)[O-])ccc23)n1 [Compound I-90] |
| < 0.01 µM | > 1 µM |  |  |  | CC(C)c1csc(C(=O)c2c[nH]c3ccccc23)n1 [Compound P-2] |
|  |  | 0.01 to 0.1 µM |  | > 1 µM | COC(=O)c1nc(C(=O)c2c[nH]c3ccccc23)sc1N(C)C [Compound I-95] |
|  |  | > 1 µM |  | > 1 µM | CC(C)c1csc(C(=O)c2c[nH]c3cc(C(=O)OCCOCCO)ccc23)n1 [Compound I-94] |
|  |  | > 1 µM |  | > 1 µM | COC(=O)c1nc(C(=O)c2c[nH]c3ccccc23)sc1Nc1ccccc1 [Compound I-91] |
|  |  | < 0.01 µM | < 0.01 µM |  | O=C(c1nc(C(F)(F)F)cs1)c1c[nH]c2ccccc12 [Compound I-92] |
|  |  | < 0.01 µM | < 0.01 µM |  | COc1ccc2c(C(=O)c3nc(C(C)(C)C)cs3)c[nH]c2c1 [Compound I-60] |
